Converted amounts (≈) assume the structure as drawn.
Columns and labels:
[1] = tested on: dermatophytes, Blastomycetes and yeasts; assay: Antimycotic in vitro activity, serial dilution test, overall comparison; type: cell-based
Description: (§1) The in vitro tests were carried out in the serial dilution test using inocula of microorganisms of approximately 5×10^3 to 10^4 microorganisms/ml of substrate. The nutrient medium used was (a) for dermatophytes and Blastomycetes: Sabouraud's test medium (b) for yeasts: meat extract/dextrose broth. The incubation temperature was 28° C. to 37° C., and the incubation period was 24 to 96 hours with yeasts and 96 hours with dermatophytes and Blastomycetes.

Candida albicans = assay: Antimycotic in vitro activity, serial dilution test, Candida albicans; type: cell-based; conditions: meat extract/dextrose broth, 28-37° C., 24 to 96 hours
Description: as §1

Trichophyton mentagr. = assay: Antimycotic in vitro activity, serial dilution test, Trichophyton mentagr.; type: cell-based, Trichophyton mentagrophytes; conditions: Sabouraud's test medium, 28-37° C., 96 hours
Description: as §1

Aspergillus fumigatus = assay: Antimycotic in vitro activity, serial dilution test, Aspergillus fumigatus; type: cell-based; conditions: 28-37° C.
Description: as §1

Torulopsis glabrata = assay: Antimycotic in vitro activity, serial dilution test, Torulopsis glabrata; type: cell-based; conditions: Nakaseomyces glabratus; 28-37° C., 24 to 96 hours
Description: as §1

Microsporum canis = assay: Antimycotic in vitro activity, serial dilution test, Microsporum canis; type: cell-based; conditions: Sabouraud's test medium, 28-37° C., 96 hours
Description: as §1

Candida = assay: Antimycotic in vivo activity (oral) in mouse candidiasis; design: species or system mouse (SPF-CF1 type); conditions: for action compared with compounds (A) and (B): oral 10-100 mg/kg; for Action (survival on the 6th day post infection): oral 10-100 mg/kg one hour before and seven hours after i.v. inoculation
Description: Mice of the SPF-CF1 type were intravenously inoculated with 1-2×10^6 logarithmically growing Candida cells, suspended in physiological saline solution. One hour before and seven hours after the inoculation, the animals are in each case orally treated with 10-100 mg/kg of body weight of the preparation. Untreated animals died 3 to 6 days post infection. The survival rate on the 6th day post infection was about 5% in untreated control animals.

mycoses = conditions: compare EP-OS No.0,180,850; cited from earlier work

Structure (SMILES)	MIC (Candida albicans) [µg/mL]	MIC (Trichophyton mentagr.) [µg/mL]	MIC (Aspergillus fumigatus) [µg/mL]	MIC (Torulopsis glabrata) [µg/mL]	MIC (Microsporum canis) [µg/mL]	antimycotic activity compared with compounds (A) and (B) [1]	action compared with compounds (A) and (B) (Candida)	Action (survival on the 6th day post infection) (Candida)	antimycotic properties (mycoses)
CC(C)SC1(C(O)(CCc2ccc(Cl)cc2)Cn2cncn2)CC1 (stereo not drawn) [Compound I-8]	8 (≈ 21.9 µM)	2 (≈ 5.47 µM)	4 (≈ 10.9 µM)	32 (≈ 87.4 µM)	–	better antimycotic activity than the compounds (A) and (B)	–	–	–
Cc1ccc(CCC(O)(Cn2cncn2)C2(Cl)CC2)cc1 (stereo not drawn) [Compound I-20]	4 (≈ 13.1 µM)	< 1	< 1	2 (≈ 6.54 µM)	2 (≈ 6.54 µM)	better antimycotic activity than the compounds (A) and (B)	–	–	–
OC(CCc1ccc(OC(F)(F)F)cc1)(Cn1cncn1)C1(Cl)CC1 (stereo not drawn) [Compound I-24]	16 (≈ 42.6 µM)	< 1	< 1	4 (≈ 10.6 µM)	4 (≈ 10.6 µM)	better antimycotic activity than the compounds (A) and (B)	–	–	–
CSC1(C(O)(CCc2ccc(Cl)cc2)Cn2cncn2)CC1 (stereo not drawn) [Compound I-6]	4 (≈ 11.8 µM)	< 1	< 1	16 (≈ 47.4 µM)	2 (≈ 5.92 µM)	better antimycotic activity than the compounds (A) and (B)	better action than the compounds (A) and (B)	+++ (action = 60% survival on the 6th day post infection)	–
OC(CCc1ccc(-c2ccccc2)cc1)(Cn1cncn1)C1(Cl)CC1 (stereo not drawn) [Compound I-25]	< 1	< 1	< 1	2 (≈ 5.44 µM)	2 (≈ 5.44 µM)	better antimycotic activity than the compounds (A) and (B)	–	–	–
CSC1(C(O)(C=Cc2ccc(Cl)cc2)Cn2cncn2)CC1 (stereo not drawn) [Compound I-13]	2 (≈ 5.95 µM)	< 1	< 1	2 (≈ 5.95 µM)	4 (≈ 11.9 µM)	better antimycotic activity than the compounds (A) and (B)	better action than the compounds (A) and (B)	+++++ (very good action = 90% survival on the 6th day post infection)	–
OC(CCc1ccc(Cl)cc1Cl)(Cn1cncn1)C1(Cl)CC1 (stereo not drawn) [Compound I-22]	2 (≈ 5.55 µM)	< 1	< 1	2 (≈ 5.55 µM)	4 (≈ 11.1 µM)	better antimycotic activity than the compounds (A) and (B)	–	–	–
CC(C)(CCC(O)(Cn1cncn1)C1(Cl)CC1)Cc1ccc(Cl)cc1 (stereo not drawn) [Compound I-17]	< 1	2 (≈ 5.23 µM)	4 (≈ 10.5 µM)	2 (≈ 5.23 µM)	–	better antimycotic activity than the compounds (A) and (B)	–	–	–
CCSC1(C(O)(CCc2ccc(Cl)cc2Cl)Cn2cncn2)CC1 (stereo not drawn) [Compound I-9]	4 (≈ 10.4 µM)	8 (≈ 20.7 µM)	16 (≈ 41.4 µM)	16 (≈ 41.4 µM)	–	better antimycotic activity than the compounds (A) and (B)	–	–	–
OC(CCc1ccccc1Cl)(Cn1cncn1)C1(Cl)CC1 (stereo not drawn) [Compound I-19]	4 (≈ 12.3 µM)	< 1	2 (≈ 6.13 µM)	16 (≈ 49 µM)	2 (≈ 6.13 µM)	better antimycotic activity than the compounds (A) and (B)	–	–	–
OC(CCc1ccc(F)cc1)(Cn1cncn1)C1(Cl)CC1 (stereo not drawn) [Compound I-12]	8 (≈ 25.8 µM)	< 1	< 1	32 (≈ 103 µM)	4 (≈ 12.9 µM)	better antimycotic activity than the compounds (A) and (B)	–	–	–
OC(CCc1ccc(Cl)cc1)(Cn1cncn1)C1(Cl)CC1 (stereo not drawn) [Compound I-1, 2-(1-chlorocyclopropyl)-4-(4-chlorophenyl)-1-(1,2,4-triazol-1-yl)-butan-2-ol]	2 (≈ 6.13 µM)	< 1	< 1	< 1	< 1	better antimycotic activity than the compounds (A) and (B)	better action than the compounds (A) and (B)	+++ (action = 60% survival on the 6th day post infection)	–
CCCSC1(C(O)(/C=C/c2ccc(Cl)cc2Cl)Cn2cncn2)CC1 (stereo not drawn) [Compound I-3, trans-4-(2,4-dichlorophenyl)-2-(1-propylmercaptocyclopropyl)1-(1,2,4-triazol-1-yl)-but-3-en-2-ol]	4 (≈ 10 µM)	8 (≈ 20.1 µM)	16 (≈ 40.2 µM)	4 (≈ 10 µM)	–	better antimycotic activity than the compounds (A) and (B)	–	–	–
OC(CCc1ccccc1)(Cn1cncn1)C1(Cl)CC1 (stereo not drawn) [Compound I-23]	4 (≈ 13.7 µM)	< 1	< 1	8 (≈ 27.4 µM)	2 (≈ 6.85 µM)	better antimycotic activity than the compounds (A) and (B)	–	–	–
OC(Cn1cncn1)(c1ccc(Cl)cc1)C1(F)CC1 (stereo not drawn) [(A), 1-(4-chlorophenyl)-1-(1-fluoro-cycloprop-1-yl)-2-(1,2,4-triazol-1-yl)-ethan-1-ol, reference compound]	> 64	> 64	> 64	–	–	–	–	–	exhibit antimycotic properties
OC(CCc1ccc(Cl)cc1)(Cn1cncn1)C1(SCc2ccccc2)CC1 (stereo not drawn) [Compound I-10]	2 (≈ 4.83 µM)	< 1	64 (≈ 155 µM)	4 (≈ 9.66 µM)	8 (≈ 19.3 µM)	better antimycotic activity than the compounds (A) and (B)	–	–	–
CCSC1(C(O)(C=Cc2ccc(Cl)cc2Cl)Cn2cncn2)CC1 (stereo not drawn) [Compound I-16]	8 (≈ 20.8 µM)	< 1	4 (≈ 10.4 µM)	< 1	< 1	better antimycotic activity than the compounds (A) and (B)	–	–	–

The next lines start with results.

MIC (Candida albicans) [µg/mL]	MIC (Trichophyton mentagr.) [µg/mL]	MIC (Aspergillus fumigatus) [µg/mL]	MIC (Torulopsis glabrata) [µg/mL]	MIC (Microsporum canis) [µg/mL]	Structure (SMILES)	antimycotic activity compared with compounds (A) and (B) [1]	action compared with compounds (A) and (B) (Candida)	Action (survival on the 6th day post infection) (Candida)	antimycotic properties (mycoses)
4 (≈ 14.8 µM)	< 1	8 (≈ 29.7 µM)	4 (≈ 14.8 µM)	4 (≈ 14.8 µM)	CC(C)(C)C=CC(O)(Cn1cncn1)C1(Cl)CC1 (stereo not drawn) [Compound I-38]	better antimycotic activity than the compounds (A) and (B)	–	–	–
2 (≈ 5.43 µM)	< 1	< 1	4 (≈ 10.9 µM)	< 1	OC(C=Cc1ccc(Br)cc1)(Cn1cncn1)C1(Cl)CC1 (stereo not drawn) [Compound I-30]	better antimycotic activity than the compounds (A) and (B)	better action than the compounds (A) and (B)	+++++ (very good action = 90% survival on the 6th day post infection)	–
8 (≈ 24.7 µM)	< 1	2 (≈ 6.17 µM)	8 (≈ 24.7 µM)	4 (≈ 12.3 µM)	OC(C=Cc1ccccc1Cl)(Cn1cncn1)C1(Cl)CC1 (stereo not drawn) [Compound I-31]	better antimycotic activity than the compounds (A) and (B)	–	–	–
< 1	< 1	< 1	< 1	< 1	Cc1ccc(C=CC(O)(Cn2cncn2)C2(Cl)CC2)cc1 (stereo not drawn) [Compound I-28]	better antimycotic activity than the compounds (A) and (B)	–	–	–
4 (≈ 13.8 µM)	< 1	2 (≈ 6.9 µM)	8 (≈ 27.6 µM)	4 (≈ 13.8 µM)	OC(C=Cc1ccccc1)(Cn1cncn1)C1(Cl)CC1 (stereo not drawn) [Compound I-32]	better antimycotic activity than the compounds (A) and (B)	–	–	–
8 (≈ 21.4 µM)	< 1	< 1	< 1	< 1	OC(C=Cc1ccc(OC(F)(F)F)cc1)(Cn1cncn1)C1(Cl)CC1 (stereo not drawn) [Compound I-33]	better antimycotic activity than the compounds (A) and (B)	better action than the compounds (A) and (B)	+++++ (very good action = 90% survival on the 6th day post infection)	–
16 (≈ 54.1 µM)	2 (≈ 6.76 µM)	2 (≈ 6.76 µM)	16 (≈ 54.1 µM)	–	OC(C=CC1CCCCC1)(Cn1cncn1)C1(Cl)CC1 (stereo not drawn) [Compound I-39]	better antimycotic activity than the compounds (A) and (B)	–	–	–
4 (≈ 10.3 µM)	2 (≈ 5.17 µM)	< 1	4 (≈ 10.3 µM)	–	OC(C=Cc1ccc(F)c(Br)c1)(Cn1cncn1)C1(Cl)CC1 (stereo not drawn) [Compound I-34]	better antimycotic activity than the compounds (A) and (B)	better action than the compounds (A) and (B)	+++ (action = 60% survival on the 6th day post infection)	–
16 (≈ 44.6 µM)	< 1	< 1	8 (≈ 22.3 µM)	< 1	OC(C=Cc1ccc(Cl)cc1Cl)(Cn1cncn1)C1(Cl)CC1 (stereo not drawn) [Compound I-29]	better antimycotic activity than the compounds (A) and (B)	better action than the compounds (A) and (B)	+++ (action = 60% survival on the 6th day post infection)	–
